According to publication PMC3356581 (Bioorganic & medicinal chemistry, 2012):

What was measured:
catalepsy = conditions: in vivo studies, five times the ED50 dose; cited from earlier work
5-HT1A receptor [1] = biological target: T1, 5-HT1A receptor (Homo sapiens, UniProt P08908); conditions: read-out: Binding data, Ki ± SEM, previously reported; cited from earlier work
T1 sequence (P08908 1-422): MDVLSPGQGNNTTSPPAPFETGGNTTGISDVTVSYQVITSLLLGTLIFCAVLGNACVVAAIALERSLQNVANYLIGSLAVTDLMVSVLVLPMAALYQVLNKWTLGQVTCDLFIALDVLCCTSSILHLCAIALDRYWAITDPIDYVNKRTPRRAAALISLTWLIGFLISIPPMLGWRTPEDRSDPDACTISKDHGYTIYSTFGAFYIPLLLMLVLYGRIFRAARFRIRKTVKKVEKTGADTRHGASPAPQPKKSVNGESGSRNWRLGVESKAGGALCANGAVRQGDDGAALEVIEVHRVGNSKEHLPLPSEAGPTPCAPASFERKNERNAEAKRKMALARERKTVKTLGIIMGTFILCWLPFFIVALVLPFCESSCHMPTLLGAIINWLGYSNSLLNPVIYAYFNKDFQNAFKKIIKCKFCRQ

D4 receptor [2] = biological target: T2, D4 receptor (Homo sapiens, UniProt P21917); conditions: read-out: Binding data, Ki ± SEM, previously reported; cited from earlier work
T2 sequence (P21917 1-419): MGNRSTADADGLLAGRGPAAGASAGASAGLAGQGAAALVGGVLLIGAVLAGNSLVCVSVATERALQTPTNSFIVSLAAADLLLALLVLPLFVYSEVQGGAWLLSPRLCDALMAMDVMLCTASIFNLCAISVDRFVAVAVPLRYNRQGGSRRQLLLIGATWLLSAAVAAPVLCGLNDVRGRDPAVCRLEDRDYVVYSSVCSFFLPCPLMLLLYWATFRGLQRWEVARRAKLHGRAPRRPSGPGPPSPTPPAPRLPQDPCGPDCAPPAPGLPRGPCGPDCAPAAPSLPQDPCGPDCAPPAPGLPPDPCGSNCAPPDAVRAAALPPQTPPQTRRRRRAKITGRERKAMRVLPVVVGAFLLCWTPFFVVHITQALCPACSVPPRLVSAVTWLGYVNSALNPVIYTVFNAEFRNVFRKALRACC

5-HT2C receptor [3] = biological target: T3, 5-HT2C receptor (Homo sapiens, UniProt P28335); conditions: read-out: Binding data, Ki ± SEM, previously reported; cited from earlier work
T3 sequence (P28335 33-458): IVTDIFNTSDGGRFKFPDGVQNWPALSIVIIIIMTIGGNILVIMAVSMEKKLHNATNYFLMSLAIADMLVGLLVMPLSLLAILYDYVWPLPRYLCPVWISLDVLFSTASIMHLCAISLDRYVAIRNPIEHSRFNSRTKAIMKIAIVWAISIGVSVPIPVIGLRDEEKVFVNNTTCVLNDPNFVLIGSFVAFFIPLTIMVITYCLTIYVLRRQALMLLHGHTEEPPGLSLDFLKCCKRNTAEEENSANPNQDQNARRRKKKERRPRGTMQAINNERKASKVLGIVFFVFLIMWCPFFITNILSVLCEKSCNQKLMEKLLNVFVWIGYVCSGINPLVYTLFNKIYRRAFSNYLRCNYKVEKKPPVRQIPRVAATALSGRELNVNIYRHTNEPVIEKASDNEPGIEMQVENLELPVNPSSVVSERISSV

D2 receptor = D2 receptor (Homo sapiens, UniProt P14416); assay: NIMH-PDSP radioligand binding, D2
5-HT1A receptor [4] = biological target: T1, 5-HT1A receptor; assay: NIMH-PDSP radioligand binding, 5-HT1A
D4 receptor [5] = biological target: T2, D4 receptor; assay: NIMH-PDSP radioligand binding, D4
5-HT2A receptor = 5-HT2A receptor (Homo sapiens, UniProt P28223); assay: NIMH-PDSP radioligand binding, 5-HT2A
5-HT2C receptor [6] = biological target: T3, 5-HT2C receptor; assay: NIMH-PDSP radioligand binding, 5-HT2C
Histamine H1 receptor = Histamine H1 receptor (Homo sapiens, UniProt P35367); assay: NIMH-PDSP radioligand binding, H1
Sequence of Histamine H1 receptor (P35367 whole entry, species assumed): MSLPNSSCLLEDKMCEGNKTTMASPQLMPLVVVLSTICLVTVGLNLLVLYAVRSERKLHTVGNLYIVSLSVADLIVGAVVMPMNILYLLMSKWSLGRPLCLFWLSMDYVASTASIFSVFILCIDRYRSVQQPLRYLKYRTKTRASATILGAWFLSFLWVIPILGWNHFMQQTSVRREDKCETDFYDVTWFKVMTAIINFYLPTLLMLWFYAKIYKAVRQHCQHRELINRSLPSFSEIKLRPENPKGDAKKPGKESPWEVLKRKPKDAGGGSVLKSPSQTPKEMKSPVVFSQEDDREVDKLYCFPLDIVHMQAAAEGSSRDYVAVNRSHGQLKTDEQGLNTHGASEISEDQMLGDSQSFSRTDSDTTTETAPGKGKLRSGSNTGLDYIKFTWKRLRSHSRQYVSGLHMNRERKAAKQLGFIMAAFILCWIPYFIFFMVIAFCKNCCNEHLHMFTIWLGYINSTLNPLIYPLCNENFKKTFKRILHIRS

Sequence of D2 receptor (P14416 whole entry): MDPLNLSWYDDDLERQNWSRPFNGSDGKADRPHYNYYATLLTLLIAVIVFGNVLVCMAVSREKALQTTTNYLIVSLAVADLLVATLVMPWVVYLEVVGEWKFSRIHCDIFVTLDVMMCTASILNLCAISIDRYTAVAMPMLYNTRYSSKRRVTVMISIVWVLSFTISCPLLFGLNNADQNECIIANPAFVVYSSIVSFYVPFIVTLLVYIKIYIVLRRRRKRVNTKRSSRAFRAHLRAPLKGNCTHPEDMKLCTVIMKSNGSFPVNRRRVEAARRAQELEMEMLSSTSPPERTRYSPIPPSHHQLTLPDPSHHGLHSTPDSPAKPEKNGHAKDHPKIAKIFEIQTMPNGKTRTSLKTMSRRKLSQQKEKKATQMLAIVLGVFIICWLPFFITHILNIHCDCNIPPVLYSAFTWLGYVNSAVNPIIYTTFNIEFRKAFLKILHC
Sequence of 5-HT2A receptor (P28223 whole entry): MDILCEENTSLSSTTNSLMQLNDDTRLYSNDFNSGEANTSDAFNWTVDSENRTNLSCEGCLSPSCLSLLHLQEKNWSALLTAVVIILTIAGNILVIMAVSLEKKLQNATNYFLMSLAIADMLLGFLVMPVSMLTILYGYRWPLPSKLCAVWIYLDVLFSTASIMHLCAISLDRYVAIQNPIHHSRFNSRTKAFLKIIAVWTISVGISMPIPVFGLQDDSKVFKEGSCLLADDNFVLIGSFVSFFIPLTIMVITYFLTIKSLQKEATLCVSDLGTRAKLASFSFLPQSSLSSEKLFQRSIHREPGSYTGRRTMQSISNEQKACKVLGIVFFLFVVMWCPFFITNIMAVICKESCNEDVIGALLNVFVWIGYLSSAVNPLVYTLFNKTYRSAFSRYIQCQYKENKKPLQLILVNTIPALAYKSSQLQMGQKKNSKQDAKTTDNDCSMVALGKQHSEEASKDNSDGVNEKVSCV

O=C(CCCN1CCCN(c2ccc(Cl)cc2)CC1)c1ccc(F)cc1 [Compound 2, 4-(4-(4-chlorophenyl)-1,4-diazepan-1-yl)-1-(4-fluorophenyl)butan-1-one]
catalepsy (catalepsy): without the associated catalepsy even at five times the ED50 dose

O=C(CCCN1CCN(c2ccc(Cl)cc2)CC1)c1ccc(F)cc1 [Compound 3]
Ki (5-HT1A receptor [1]): 90.9 ± 21 nM | Ki (D4 receptor [2]): 17.5 ± 2 nM | Ki (5-HT2C receptor [3]): 3550 ± 943 nM

Clc1ccc(N2CCCN(CCCc3nc4ccccc4s3)CC2)cc1 [Compound 14, 2-(3-(4-(4-Chlorophenyl)-1,4-diazepan-1-yl)propyl)benzo [d]thiazole]
Binding data; Ki ± SEM, D2 (D2 receptor): MP (Missed primary assay threshold of 50% inhibition)

Clc1ccc(N2CCCN(Cc3nc4ccccc4s3)CC2)cc1 [Compound 15, 2-((4-(4-Chlorophenyl)-1,4-diazepan-1-yl)methyl)benzo [d]thiazole]
Binding data; Ki ± SEM, 5-HT1A (5-HT1A receptor [4]): MP (Missed primary assay threshold of 50% inhibition) | Binding data; Ki ± SEM, D4 (D4 receptor [5]): MP (Missed primary assay threshold of 50% inhibition) | Binding data; Ki ± SEM, 5-HT2A (5-HT2A receptor): MP (Missed primary assay threshold of 50% inhibition) | Binding data; Ki ± SEM, 5-HT2C (5-HT2C receptor [6]): MP (Missed primary assay threshold of 50% inhibition) | Binding data; Ki ± SEM, H1 (Histamine H1 receptor): MP (Missed primary assay threshold of 50% inhibition)

O=C(CCCN1CCCN(c2ccc(Cl)cc2)CC1)c1nc2ccccc2s1 [Compound 17, 1-(Benzo[d]thiazol-2-yl)-4-(4-(4-chlorophenyl)-1,4-diazepan-1-yl)butan-1-one]
Binding data; Ki ± SEM, 5-HT1A (5-HT1A receptor [4]): MP (Missed primary assay threshold of 50% inhibition) | Binding data; Ki ± SEM, 5-HT2C (5-HT2C receptor [6]): MP (Missed primary assay threshold of 50% inhibition) | Binding data; Ki ± SEM, D2 (D2 receptor): MP (Missed primary assay threshold of 50% inhibition)

O=C(CCCCN1C2CCC1CC(O)(c1ccc(Cl)cc1)C2)c1nc2ccccc2s1 (stereo not shown) [Compound 18, 1-(Benzo[d]thiazol-2-yl)-5-(3-(4-chlorophenyl)-3-hydroxy-8-azabicyclo[3.2.1]octan-8-yl)pentan-1-one]
Binding data; Ki ± SEM, 5-HT1A (5-HT1A receptor [4]): MP (Missed primary assay threshold of 50% inhibition) | Binding data; Ki ± SEM, 5-HT2A (5-HT2A receptor): MP (Missed primary assay threshold of 50% inhibition) | Binding data; Ki ± SEM, 5-HT2C (5-HT2C receptor [6]): MP (Missed primary assay threshold of 50% inhibition)
